Measurements reported in patent US20060240986A1, “Herbicidal method” (Sumitomo Chemical Company, Limited, priority 2005, published 2006).

Tests used:
[1] = system: hemp sesbania (Seshania exaltata); experiment: Test Example 1, peanut field: herbicidal activity; type: in vivo; conditions: sprayed over plants grown 12 days, examined 7 days after application
Procedure: (§1) Plastic pots each having a diameter of 18 cm and depth of 14 cm were filled with upland soil, and then seeded with yellow nutsedge (Cyperus esculentus), hemp sesbania (Seshania exaltata) and sicklepod (Cassia obtusifolia). In a greenhouse, they were grown for 12 days. Flumioxazin water dispersible granules (commercial name: Valor SX, produced by Valent U.S.A.), Imazosulfuron emulsifiable concentrate (produced by mixing well 5 parts of Imazosulfuron, 65 parts of cyclohexanone, 13 parts of Sorpol 2680 (Toho Chemical's product) and 17 parts of dimethylformamide) and a mixture of the Flumioxazin water dispersible granules and the Imazosulfuron emulsifiable concentrate were independently diluted in their designated amounts with water. Each dilution was uniformly sprayed over the test plants with a small sprayer. […] Further, the pots were seeded with peanut (Arachis hypogea) 7 days after the application, and the phytotoxicity against the crop was examined 10 days after the seeding.

[2] = system: sicklepod (Cassia obtusifolia); experiment: Test Example 1, peanut field: herbicidal activity; type: in vivo; conditions: sprayed over plants grown 12 days, examined 7 days after application
Procedure: as §1

[3] = system: yellow nutsedge (Cyperus esculentus); experiment: Test Example 1, peanut field: herbicidal activity; type: in vivo; conditions: sprayed over plants grown 12 days, examined 7 days after application
Procedure: as §1

peanut (Arachis hypogea) = experiment: Test Example 1, peanut field: phytotoxicity against crop; type: in vivo; conditions: peanut seeded 7 days after application, examined 10 days after seeding
Procedure: as §1

[4] = system: barnyardgrass (Echinochloa crus-gall); experiment: Test Example 2, vegetable field: herbicidal activity; type: in vivo, Echinochloa crus-galli; conditions: granules to soil surface the day after seeding, grown 29 days
Description: (§2) Plastic pots each having a diameter of 18 cm and depth of 14 cm were filled with upland soil, and then seeded with barnyardgrass (Echinochloa crus-gall) and onion (Allium cepa).

onion (Allium cepa) = experiment: Test Example 2, vegetable field: phytotoxicity; type: in vivo; conditions: 20 g/ha active ingredient; granules to soil surface the day after seeding; grown 29 days
Description: as §2

[5] = system: giant foxtail (Setaria faberi); experiment: Test Example 5, vegetable field: herbicidal activity; type: in vivo; conditions: granules to soil surface the day after seeding, 17 days in greenhouse
Description: (§3) Plastic pots each having a diameter of 18 cm and depth of 14 cm were filled with upland soil, seedlings of strawberry (Fragaria ananassa) was transplanted and then seeded with giant foxtail (Setaria faberi).

[6] = system: strawberry (Fragaria ananassa); experiment: Test Example 5, vegetable field: phytotoxicity; type: in vivo; conditions: 40 g/ha active ingredient; transplanted seedlings; granules to soil surface the next day; 17 days in greenhouse
Description: as §3

kudzu (Pueraria lobata) = experiment: Test Example 12, non-cultivated land: herbicidal activity; type: in vivo; conditions: sprayed to soil surface the day after seeding, 14 days in greenhouse
Description: Plastic pots each having a diameter of 9 cm and depth of 7 cm were filled with upland soil, and then seeded with kudzu (Pueraria lobata).

C#CCN1C(=O)COc2cc(F)c(N3C(=O)C4=C(CCCC4)C3=O)cc21 [Flumioxazin, N-(7-fluoro-3,4-dihydro-3-oxo-4-prop-2-ynyl-2H-1,4-benzoxadin-6-yl)cyclohex-1-ene-1,2-dicarboxamide]
Herbicidal activity Se ([1]; 30 g/ha active ingredient): 1 | Herbicidal activity Se ([1]; 60 g/ha active ingredient): 1 | Herbicidal activity Co ([2]; 30 g/ha active ingredient): 0 | Herbicidal activity Co ([2]; 60 g/ha active ingredient): 1 | Herbicidal activity Ce ([3]; 30 g/ha active ingredient): 0 | Herbicidal activity Ce ([3]; 60 g/ha active ingredient): 0 | Phytotoxicity against crop Peanut (peanut (Arachis hypogea); 30 g/ha active ingredient): No damage | Phytotoxicity against crop Peanut (peanut (Arachis hypogea); 60 g/ha active ingredient): No damage | Herbicidal activity Barnyardgrass ([4]; 20 g/ha active ingredient): 1 | Phtotoxicity Onion (onion (Allium cepa)): No damage | Herbicidal activity giant foxtail ([5]; 40 g/ha active ingredient): 2 | Phtotoxicity strawberry [6]: No damage | Herbicidal activity kudzu (kudzu (Pueraria lobata); 100 g/ha active ingredient): 1

COc1cc(OC)nc(NC(=O)NS(=O)(=O)c2c(Cl)nc3ccccn23)n1 [Imazosulfuron, 1-(2-chloroimidazo[1,2-a]pyridin-3-ylsulfonyl)-3-(4,6-dimethoxypyrimidin-2-yl)urea]
Herbicidal activity Se ([1]; 60 g/ha active ingredient): 2 | Herbicidal activity Se ([1]; 120 g/ha active ingredient): 3 | Herbicidal activity Co ([2]; 60 g/ha active ingredient): 1 | Herbicidal activity Co ([2]; 120 g/ha active ingredient): 1 | Herbicidal activity Ce ([3]; 60 g/ha active ingredient): 2 | Herbicidal activity Ce ([3]; 120 g/ha active ingredient): 2 | Herbicidal activity Barnyardgrass ([4]; 50 g/ha active ingredient): 0 | Herbicidal activity giant foxtail ([5]; 50 g/ha active ingredient): 0 | Herbicidal activity giant foxtail ([5]; 250 g/ha active ingredient): 1 | Herbicidal activity kudzu (kudzu (Pueraria lobata); 100 g/ha active ingredient): 1 | Herbicidal activity kudzu (kudzu (Pueraria lobata); 500 g/ha active ingredient): 2
